Assay results taken from patent US20230381117A1, “ANTI-OBESITY POTENTIAL OF BISDEMETHOXYCURCUMIN COMPOSITIONS” (SAMI-SABINSA GROUP LIMITED, priority 2020, published 2023).
Read-outs that look alike come from different tables or passages of the source.

Tests used:
[1] = test system: Mouse 3T3-L1 pre-adipocytes; test: Adipogenesis inhibition, lipid accumulation by Oil red O staining in cultured 3T3L1; assay type: cell-based
Experimental: Stock was diluted 1000 times in DMEM to get 10 μg/ml final concentration and serially diluted. Insulin (Hi Media) was bought as a solution at a concentration of 20 mg/ml. This was diluted to 1 μg/ml in DMEM. IBMX (Sigma)—Stock of 5 mM was prepared in DMEM, and diluted 10 times to be used at a final concentration of 0.5 mM. Dexamethasone (Sigma)—A stock of 10 μM was prepared in DMEM and diluted 40 times to get a final concentration of 0.25 μM. Mouse 3T3-L1 pre-adipocytes were cultured in DMEM media containing 25 mM glucose, 10% heat-inactivated new born calf serum (NBCS) and antibiotics at 37° C. and 5% CO2. When the cells were 70-80% confluent, they were trypsinized, washed and seeded in 48 well plates at a density of 3×10^4 cells per well. […] After differentiation for two days, The media was replaced with DMEM containing insulin (1 μg/mL) and different concentrations of test ingredients on alternate days until the cells were processed after 3rd progression. Untreated cells grown in differentiation media and undifferentiated cells grown in NBCS media were taken as adipogenesis positive and negative controls for the experiment. Quantification of triglycerides accumulated in adipocytes was done by Oil red O staining.

[2] = test system: high fat diet induced obesity in C57 mice; test: High fat diet induced obesity in C57 mice; assay type: in vivo, C57/BL6 mice; conditions: high fat diet fed mice, 50 mg/kgbw; FIG. 6
Experimental: Animals-C57/BL6 mice, 6-8 weeks of age and 8 animals/Group (4 Male and 4 Female) were used for the study. […] The temperature and relative humidity was recorded once daily. Feed: […] Water was provided along with High Fat Diet to the animals throughout the acclimatization and experimental period. Water from water filter cum purifier was provided in animal feeding bottle with stainless steel sipper tubes. The design of the study groups is depicted in table 4. [table] Body weight of the animals was recorded in all the days of experimental period. At the end of the experimental period, the animals were sacrificed by cervical dislocation. Blood was collected and Serum was separated by centrifugation and used for the analysis of biochemical parameters. […] The following parameters were measured in the above groups: • Measurement of Body weight: Determination of Organ Weight13 Liver, Visceral adipose tissue (VAT) and subcutaneous adipose tissue (SAT) • Estimation of Cholesterol (Zak et al., (2009) A new method for the determination of serum cholesterol. J Clin Endocrinol Metab., 94(7), 2215-2220) • Estimation of Triglycerides (Foster L. B and Dunn R. T. (1973) Stable reagents for determination of serum triglycerides by a colorimetric Hantzsch condensation method. Clin Chem, 196, 338-340). • Estimation of HDL Cholesterol (Burstein et al., (1970). Determination of HDL cholesterol. […]

[3] = 3T3-L1, read-out: Adipogenesis inhibition
[4] = Table 2B, 1.5625 μg/ml, 3T3-L1, Oil red O, read-out: Adipogenesis inhibition
[5] = Table 2B, 3.125 μg/ml, 3T3-L1, Oil red O, read-out: Adipogenesis inhibition

Compound	inhibition at 1.5625 µg/mL [1, 3]	inhibition at 3.125 µg/mL [1, 3]	inhibition at 1.5625 µg/mL [1, 4]	inhibition at 3.125 µg/mL [1, 5]	Adverse effect on weight of the liver / critical organs [2]
COc1cc(/C=C/C(O)=C/C(=O)/C=C/c2ccc(O)cc2)ccc1O [DMC, demethoxycurcumin]	21%	19.4%			
O=C(/C=C/c1ccc(O)cc1)CC(=O)/C=C/c1ccc(O)cc1 [BDMC, bisdemethoxycurcumin]			20.2%	16.2%	does not induce any adverse effects
COc1cc(/C=C/C(=O)CC(=O)/C=C/c2ccc(O)c(OC)c2)ccc1O [Curcumin, curcumin]			11.6%	11.1%	
